Entries after “also recorded” stand apart in the source; their conditions may differ.
Assays:
CelR = target: T1, CelR (Thermobifida fusca, UniProt O87590); settings: Spiridonov et al. 1999; cited from earlier work
T1 sequence (O87590 1-340): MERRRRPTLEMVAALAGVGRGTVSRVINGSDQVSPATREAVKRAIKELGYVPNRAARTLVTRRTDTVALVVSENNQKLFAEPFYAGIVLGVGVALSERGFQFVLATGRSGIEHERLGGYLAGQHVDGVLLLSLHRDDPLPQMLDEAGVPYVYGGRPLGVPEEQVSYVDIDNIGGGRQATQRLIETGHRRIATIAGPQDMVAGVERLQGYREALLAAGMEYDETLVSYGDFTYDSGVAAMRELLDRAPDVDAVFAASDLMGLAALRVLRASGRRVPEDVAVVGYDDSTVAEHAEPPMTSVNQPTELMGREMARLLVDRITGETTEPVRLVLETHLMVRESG

[1] = test system: celC, glyR3, licA, orf4, manB and celT transcripts; test: RT-qPCR, inducibility of gene expression in C. thermocellum grown on different substrates; assay type: cell-based, Clostridium thermocellum; settings: substrate 0.5%, time course of 50 hrs, compared with 1-3 linked sugars, FIG. 2
Protocol: FIG. 2 is a graph showing RT-qPCR results detailing the inducibility of expression of celC, glyR3 and licA when Clostridium thermocellum is grown on a 1-3 linked sugar: lichenan, laminarin and laminaribiose, compared to the 1-4 linked sugar, cellobiose. The bacterium was grown on the substrates for a time course of 50 hrs. Each 10 hours a sample was taken and the RNA harvested, DNase I digested, subjected to reverse transcription, and then qPCR. Columns left to right for each substrate represent relative transcription levels of celC, glyR3, licA orf4 manB and ceIT, respectively. The qPCR levels are all relative to the 16S transcript in C. thermocellum.
To test the effect of growth substrate on the inducibility of the expression of celC, glyR3, licA, orf4, manB, and celT genes in C. thermocellum, C. thermocellum was grown on substrates containing either a 1-4 linked sugar (cellobiose) or a 1-3 linked sugar (laminarin, lichenan, and laminaribiose). RT-qPCR was carried out on the cells to determine the level of 16S transcripts of the genes, as follows.
The bacterium was grown on the substrates for a time course of 50 hrs. Each 10 hrs a sample was taken. Cultures were centrifuged to collect the cells. Everything used from this point forward was RNase free. […] RNA concentration was measured using a Hitachi U-2000 spectrophotometer at 260/280 nm. […]

[2] = test system: rGlyR3-celC promoter complex; test: EMSA, effect of sugars on the rGlyR3-celC promoter complex; assay type: binding, Clostridium thermocellum; settings: for effect of sugar on the rGlyR3-celC promoter binding reaction: 15 mM sugar, 5 ng 100 bp celC promoter DNA, 0.5 ng rGlyR3, FIG. 17
Protocol: The EMSA analyzing biotin labeled DNA fragments. Lane 1, no protein and 5 ng DNA; Lanes 2-12 contain 5 ng 100 bp celC promoter DNA, 0.5 ng rGlyR3 and 15 mM of their respected sugars.
(§1) All EMSA experiments described herein were performed using a 4% polyacrylamide gel and Tris-Borate-EDTA buffer. EMSA reactions all contained: 500 ng poly (dI-dC), 1× Lightshift EMSA kit binding buffer (Pierce), 1× Lightshift loading dye (Pierce), optimized amounts of DNA probe, protein, and saccharides as specified in figure legends.
The binding of the rGlyR3 protein was inhibited by laminaribiose. Several sugars were tested to see if they could inhibit the rGlyR3-celC promoter complex.

celC transcription = test: In vitro transcription assay (RT-qPCR readout); assay type: biochemical, Clostridium thermocellum
Protocol: The baseline transcription mixture consists of: rNTPs, transcription buffer, 1 ug of 850 bp DNA containing celC and its promoter region, 10 ul C. thermocellum cell lysate (grown on cellobiose). After transcription, the RNA was harvested, DNase I digested, used in a Reverse Transcriptase reaction and then in qPCR.
A DNA template for in vitro transcription was created using the following primers (SEQ ID NO:30): Invt-F-[…]; (SEQ ID NO:31): Invt-R-CCAGTGGGCTTTCTGATGC) to amplify the 200 bp celC promoter along with 650 bp of the celC gene. PCR used a standard reaction for Extensor Hi-Fidelity Enzyme with genomic DNA as template. Each in vitro transcription assay contained: 10 μl C. thermocellum cell lysate (cellobiose grown culture), 2 μl RNase Out (Invitrogen, Carlsbad, Calif.), 1× RNA polymerase buffer, 1 μg of DNA template, 25 nM rNTP's, differing amounts of rGlyR3, differing amounts of laminaribiose, and DEPC water to a volume of 50 μl. The reactions were incubated at 60° C. for 50 minutes. After incubation the resulting RNA was isolated using the previously described Trizol method. The isolated RNA was subjected to DNase I digestion and a standard reverse transcription reaction as described above. Using the qPCR protocol already outlined, with primers for celC, it was possible to show the amount of transcript created for each reaction.

[3] = test system: rGlyR3-celC promoter complex; test: EMSA rGlyR3 binding site competition assay; design: species or system Clostridium thermocellum; settings: 100x unlabeled competitor, 0.5 ng rGlyR3, FIG. 16
Protocol: FIG. 16 is a gel showing the results of an EMSA rGlyR3 binding site competition assay. A gel shift competition assay was used to analyze specificity of binding and confirm the DNase I footprint results. All lanes contain biotin labeled 100 bp celC promoter fragment containing the binding site. Lane 1, no protein; Lane 2, 0.5 ng rGlyR3; Lane 3, 0.5 ng rGlyR3 and 100× unlabeled 18 bp binding site; Lane 4, 0.5 ng rGlyR3 and 100 × control fragment (18 bp piece of original 100 bp region, contains no part of putative binding site).
as §1
The 18 bp sequence corresponds to (SEQ ID NO:36): AATGAACGC GCGTACATT.

celC promoter region = test: EMSA, binding of rGlyR3 to the celC promoter region; design: species or system Clostridium thermocellum
Protocol: Gel Shift, or Band Shift Assay, or Electrophoretic Mobility Shift Assay (EMSA) is a technique for studying gene regulation and determining protein:DNA interactions. The assay is based on the observation that complexes of protein and DNA migrate through a non-denaturing polyacrylamide gel more slowly than free DNA fragments or double-stranded oligonucleotides. The gel shift assay is carried out by first incubating a protein(s) (such as nuclear or cell extract) with a 32^P end-labeled DNA fragment containing the putative protein binding site. The reaction products are then analyzed on a non-denaturing polyacrylamide gel. The specificity of the DNA-binding protein for the putative binding site is established by competition experiments using DNA fragments or oligonucleotides containing a binding site for the protein of interest or other unrelated DNA sequences.
as §1
EMSA gels were electroblotted onto Biodyne B membrane (Pall Corporation). Signal development was accomplished using the Lightshift Chemiluminescent EMSA kit protocol (Pierce). Kodak Biomax film captured the luminescence for viewing.
Probes for EMSA were created using PCR with Thermostart Taq (ABgene) as a polymerase. The standard Thermostart protocol was used with varying extension times (1 kb/minute rule always followed) and different annealing temperatures (57° C.-62° C.). Primers were synthesized with a 5′ biotin label by Invitrogen (Carlsbad, Calif.). Primers (5′-3′) used: […]
For probes that contained just the 18 bp binding site, complementary DNA fragments were synthesized and annealed by heating to 94 C and then cooling:
(§2) The dissociation constant was determined as the concentration of GlyR3 needed to shift 50% of the celC promoter region in the EMSA.

[4] = test system: 200 bp fragment of the celS structure gene; test: EMSA, rGlyR3 with celS structure gene fragment as probe; assay type: binding, Clostridium thermocellum; settings: FIG. 11, lanes 5 and 6
Protocol: as §1, §2

O=C[C@H](O)[C@@H](O)[C@H](O[C@@H]1O[C@H](CO)[C@@H](O)[C@H](O)[C@H]1O)[C@H](O)CO [cellobiose]
concentration inhibiting binding of CelR to its target DNA sequence (CelR): 0.2 to 0.5 mM
transcript level of the gene cluster relative to 16S transcript [1]: less of the transcript containing the genes is produced

OC[C@H]1O[C@@H](OC[C@H]2OC(O)[C@H](O)[C@@H](O)[C@@H]2O)[C@H](O)[C@@H](O)[C@@H]1O (some centres unmarked) [gentibiose]
effect of sugar on the rGlyR3-celC promoter binding reaction [2]: no effect

OC[C@H]1O[C@@H](O[C@H]2[C@H](O)[C@@H](O)C(O)O[C@@H]2CO)[C@H](O)[C@@H](O)[C@H]1O (some centres unmarked) [lactose]
effect of sugar on the rGlyR3-celC promoter binding reaction [2]: no effect

OC[C@H]1O[C@@H](O[C@H]2[C@H](O)[C@@H](CO)OC(O)[C@@H]2O)[C@H](O)[C@@H](O)[C@@H]1O (some centres unmarked) [laminaribiose]
effect on celC transcription in presence of GlyR3 (celC transcription; 5 mM laminaribiose in addition to 400 ng GlyR3, FIG. 3): transcription returned to baseline levels or greater
effect of sugar on the rGlyR3-celC promoter binding reaction [2]: severely reduced the formation of the DNA-protein complex
effect on binding of GlyR3 to the 18 bp binding site ([2]; FIG. 15): inhibited
effect of laminaribiose on GlyR3-100 bp celC promoter interaction ([2]; GlyR3 0.5 ng, DNA 5 ng, increasing laminaribiose, FIG. 9): inhibited; also recorded: DNA-protein complex diminished as the concentration of laminaribiose increased

OC[C@H]1O[C@H](O[C@H]2[C@H](O)[C@@H](O)[C@H](O)O[C@@H]2CO)[C@H](O)[C@@H](O)[C@@H]1O [maltose]
effect of sugar on the rGlyR3-celC promoter binding reaction [2]: no effect

OC[C@H]1O[C@@](CO)(O[C@H]2O[C@H](CO)[C@@H](O)[C@H](O)[C@H]2O)[C@@H](O)[C@@H]1O [sucrose]
effect of sugar on the rGlyR3-celC promoter binding reaction [2]: no effect

unlabeled 18 bp binding site: 18 bp near perfect palindromic sequence of the celC promoter, SEQ ID NO:36: AATGAACGC GCGTACATT (DNA AATGAACGCGCGTACATT; listed as DNA, chemistry not given here)
competition for the shifted band of the 100 bp celC promoter fragment [3]: able to compete out the shifted band

B1: GlyR3: C. thermocellum LacI-like repressor protein, amino acid sequence SEQ ID NO:3; rGlyR3 is the recombinant form expressed in E. coli (protein)
chain: MTSEEIAKLCGVSRATVSRVINNSPNVKEETRQKILAVIKEKNYVPIAPARRLAGIDSNIIGLFVLDIDISESKSRVSESTYFSRLINLIIDQANNFGFQVLVSIITSQKQLSEIRNLFMSRTIFSGIFIGAFNDEIQLDDDIIMQHPTIIIDRQSERMVKKPNRLVVNLDNFEGAYNATQFLIKLGHTRIGHISGDLRKLSGIERYEGYKKALEDAGLGFDKNLVREGNFLDDSGYRLAREILKENVTAIFCANDVMAISAIKAIKETGLSVPDDISVIGFDNTAIGNYIMPALTTVNAPLEHIAEACIESLKYFCEHKHFKQKEIRVKTDLIIRDSTKRALEF
modifications: C. thermocellum
notes: rGlyR3 is the recombinant form expressed in E. coli
binding to first and second halves of the celC promoter (band shift) (celC promoter region; 0.5 ng rGlyR3, 5 ng of each probe, FIG. 11): creates a shifted band with both probes
binding to the 200 bp celC promoter region (celC promoter region; 1 ng protein, 5 ng DNA, FIG. 12): binds
binding to a control fragment of 18 bp located within the celC promoter (celC promoter region; FIG. 13): no binding
binding to the 18 bp DNA fragment (binding site) (celC promoter region; FIG. 13): dose dependent binding
binding to 200 bp fragment of the celS structure gene [4]: does not bind
effect on transcription of the celC gene in vitro (celC transcription; 400 ng GlyR3, FIG. 3): can inhibit transcription

Reference: patent publication US8309324B2, “Promoters and proteins from Clostridium thermocellum and uses thereof” (University of Rochester, priority 2004, dated 2012)
